Consider three compounds from patent US9840532B2, “5′-substituted nucleoside compounds” (Eli Lilly and Company, priority 2015, dated 2017).

For one experiment, the target named is T1, PRMT5/MEP50 complex (Homo sapiens, UniProt O14744).
T1 construct: FLAG; made in house; host or cells: baculovirus/Sf9 insect cells
The experiment can be described thus: PRMT5/MEP50 SPA Assay. It is filed as biochemical. Conditions: Mean ± SEM. An excerpt:
The purpose of this assay is to measure the ability of a test compound to inhibit the enzyme activity of PRMT5 in vitro by inhibiting the catalytic activity of PRMT5/MEP50 complex, indicated by the transfer of radiolabeled methyl-^3H to a substrate peptide derived from the N-terminal sequence of the human histone H4.
Express the PRMT5/MEP50 enzyme complex using a baculovirus/Sf9 system and purify using anti-FLAG affinity chromatography, (essentially as described in preparations by Stephen Antonysamy, Zahid Bonday, Robert M. Campbell, Brandon Doyle, Zhanna Druzina, Tarun Gheyi, Bomie Han, Louis N. Jungheim, Yuewei Qian, Charles Rauch, Marijane Russell, J. Michael Sauder, Stephen R. Wasserman, Kenneth Weichert, Francis S. Willard, Aiping Zhang, and Spencer Emtage; Crystal structure of the human PRMT5:MEP50 complex, Proceedings of the National Academy of Sciences, 2012, Volume 109, pages 17960-17965.) Dilute purified enzyme to a working stock of 6.67 nM in assay buffer (50 mM TRIZMA® preset pH ˜8.5, 1 mM DTT, 0.005% TWEEN® 80 0.01% HSA).
Add enzyme (15 μL/well) to a 384-well assay plate (CORNING® cat. #3706). Add test compounds from a 10 mM DMSO stock solution to the plate as serial dilutions in assay buffer to achieve a final test concentrations ranging from 50.0 μM to 25 nM. Create a reaction mix containing 1 μM Histone H4 biotinylated peptide substrate, H-[…]-biotin (SEQ ID NO: 1), prepared by FastMoc chemistry with an ABI 431 peptide, and 4 μM ^3H-SAM; 15 Ci/mmol, 0.366 mCi/mL, 37 μM, PERKIN-ELMER® cat. # NET155000MC) in assay buffer. To each plate well, add 5 μL of the peptide/^3H-SAM reaction mix to yield final assay conditions of 5 nM enzyme, 1 ^3H-SAM, 250 nM peptide and 50 μM maximum test compound concentration with 0.5% DMSO, at a final volume of 20 μL. Incubate the assay for 2 hr at room temperature. Stop the reaction with the addition of guanidine HCl (5 M, 20 μL, Sigma cat. # G3272).
Suspend strepavidin YSI SPA scintillation beads (PERKIN-ELMER®, #RPNQ0012) at 1 mg/mL in pH ˜8.5 Tris buffer containing 5 M guanidine HCl. To each well, add 20 μL of this bead suspension, agitate the resulting mixtures, and incubate for 1 hr at room temperature prior to measuring their radioactivity, using a microplate liquid scintillation counter as an indication of the formation of methylated peptide product.
Generate raw data from the radioactivity measurement as counts per min (CPM). Employ an uninhibited control (DMSO) and maximum inhibited control (250 μM dehydrosinefungin, (isolated essentially as described in Berry, D. R. & Abbott, B. J. Incorporation of carbon-14-labeled compounds into sinefungin (A9145), a nucleoside antifungal antibiotic. J. Antibiot. 1978 (31) 185-191 and references cited therein)). […]

The subject of a further experiment is EOL-1 cells. Kind of experiment: Combination with BCL2 inhibitor ABT-199 in AML cell lines, 7-day cell proliferation assay. It is filed as cell-based. Conditions: Homo sapiens, EOL1, 168 h; EOL-1, treatment duration 7 Days; single agent or combination; read-out: Absolute IC50 (cell proliferation). The procedure: On day 1, plate GDM-1 [ATCC®, maintained throughout in GDM-1 assay medium: RPMI-1640 medium/20% heat-inactivated FBS (GIBCO®)] and EOL-1 cells [ATCC®, maintained throughout in EOL-1 assay medium: RPMI-1640 medium/10% heat-inactivated FBS (GIBCO®)] at 4000 and 10000 cells/well (100 μL/well) respectively, in a 96-well assay plate (BD FALCON® 35-3219). Incubate the plates in a 37° C. incubator (5% CO2) for 18-24 hr. On day 2, prepare 2.0% DMSO with assay medium (as indicated above or RPMI-1640/20% heat-inactivated FBS and RPMI-1640/10% FBS for GDM-1 and EOL-1, respectively) and add 100 μL to columns 3-12 in a preparation plate. Prepare test compounds ABT-199 at 10 μM in 2% DMSO and PRMT5 inhibitor Example 1 at 25 μM in 2% DMSO and dispense into wells A2 and B2, respectively, followed by serial dilution (1:3, 10 points) to wells A11 and B11, respectively. For combinational treatment, serially dilute test compound examples at 1:2 in assay medium (as indicated above or RPMI-1640/20% heat-inactivated FBS and RPMI-1640/10% FBS for GDM-1 and EOL-1, respectively) in wells C2-C11 (0.1 μM) to H2-H11, then serially dilute test compound ABT-199 1:3 from C2-H2 (1.0 μM) to C11-H11. […] Incubate plates for 10-15 min at room temperature before reading. Measure luminescence using the PERKIN-ELMER® ENVISION® Multi-Label Reader. […]

T1 sequence (O14744 whole entry): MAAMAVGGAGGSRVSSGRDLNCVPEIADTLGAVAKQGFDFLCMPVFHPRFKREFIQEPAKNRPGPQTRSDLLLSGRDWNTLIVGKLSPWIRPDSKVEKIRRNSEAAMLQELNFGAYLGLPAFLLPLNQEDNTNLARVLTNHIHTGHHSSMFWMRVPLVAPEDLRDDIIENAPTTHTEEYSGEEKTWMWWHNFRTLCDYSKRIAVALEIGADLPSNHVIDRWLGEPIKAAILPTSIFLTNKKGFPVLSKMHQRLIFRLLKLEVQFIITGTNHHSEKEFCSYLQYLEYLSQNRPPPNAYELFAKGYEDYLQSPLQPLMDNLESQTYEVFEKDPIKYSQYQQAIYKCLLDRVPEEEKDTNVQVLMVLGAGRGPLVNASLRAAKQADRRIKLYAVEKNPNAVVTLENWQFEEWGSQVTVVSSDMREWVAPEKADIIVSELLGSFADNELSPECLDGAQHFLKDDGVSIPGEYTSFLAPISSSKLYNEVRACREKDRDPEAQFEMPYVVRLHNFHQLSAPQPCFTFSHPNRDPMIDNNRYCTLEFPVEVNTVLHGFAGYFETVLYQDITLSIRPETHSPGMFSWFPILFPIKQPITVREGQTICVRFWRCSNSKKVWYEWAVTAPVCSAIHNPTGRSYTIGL
T1 sequence (Q9BQA1 whole entry partner): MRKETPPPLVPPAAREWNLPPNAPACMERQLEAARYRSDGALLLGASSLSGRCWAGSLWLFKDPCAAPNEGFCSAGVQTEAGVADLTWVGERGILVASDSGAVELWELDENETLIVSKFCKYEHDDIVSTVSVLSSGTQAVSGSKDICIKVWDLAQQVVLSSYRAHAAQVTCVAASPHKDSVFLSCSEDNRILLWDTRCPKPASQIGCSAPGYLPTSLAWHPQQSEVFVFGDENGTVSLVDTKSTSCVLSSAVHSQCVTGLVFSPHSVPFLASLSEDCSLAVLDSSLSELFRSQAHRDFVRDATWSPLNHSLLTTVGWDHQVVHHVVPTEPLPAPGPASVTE

Compound `Nc1ncnc2c1ccn2[C@@H]1O[C@H]([C@H](O)c2ccccc2)[C@@H](O)[C@H]1O` [Example 2, (2R,3R,4S,5R)-2-(4-Aminopyrrolo[2,3-d]pyrimidin-7-yl)-5[(R)-hydroxy(phenyl)methyl]tetrahydrofuran-3,4-diol] displayed an IC50 on PRMT5/MEP50 complex of 9.51 nM.
The same measure, in the same setting: for `C[C@@](O)(c1ccc(Cl)cc1)[C@H]1O[C@@H](n2ccc3c(N)ncnc32)[C@H](O)[C@@H]1O` [Example 3, (2R,3R,4S,5S)-2-(4-Aminopyrrolo[2,3-d]pyrimidin-7-yl)-5-[(1R)-1-(4-chlorophenyl)-1-hydroxy-ethyl]tetrahydrofuran-3,4-diol] the value was 5.23 nM.
For the compound `Nc1ncnc2c1ccn2[C@@H]1O[C@H]([C@H](O)c2ccc(Cl)cc2)[C@@H](O)[C@H]1O` [Example 1, (2R,3R,4S,5R)-2-(4-Aminopyrrolo[2,3-d]pyrimidin-7-yl)-5-[(R)-(4-chlorophenyl)-hydroxy-methyl]tetrahydrofuran-3,4-diol], the IC50 came out at 4.27 nM against PRMT5/MEP50 complex and 6 nM in the experiment with EOL-1 cells.
